Experimental data as given in patent US8883789B2, “Piperazine derivatives and their use as positive allosteric modulators of mGluR5 receptors” (Boehringer Ingelheim International GmbH, priority 2011, dated 2014).
pEC50: −log10 of the molar value.

The molecules below were run against T1, human recombinant mGluR5 (Homo sapiens, UniProt P41594) (assay: positive modulation of mGluR5, calcium based FLIPR assay). Conditions: HEK 293 cell line expressing human recombinant mGluR5; Ca2+ peak height after glutamate at approximately 5% basal stimulation; nonlinear regression.
T1 construct: expressed in transfected cells; hygromycin and geneticin selection
T1 sequence (P41594 21-1212): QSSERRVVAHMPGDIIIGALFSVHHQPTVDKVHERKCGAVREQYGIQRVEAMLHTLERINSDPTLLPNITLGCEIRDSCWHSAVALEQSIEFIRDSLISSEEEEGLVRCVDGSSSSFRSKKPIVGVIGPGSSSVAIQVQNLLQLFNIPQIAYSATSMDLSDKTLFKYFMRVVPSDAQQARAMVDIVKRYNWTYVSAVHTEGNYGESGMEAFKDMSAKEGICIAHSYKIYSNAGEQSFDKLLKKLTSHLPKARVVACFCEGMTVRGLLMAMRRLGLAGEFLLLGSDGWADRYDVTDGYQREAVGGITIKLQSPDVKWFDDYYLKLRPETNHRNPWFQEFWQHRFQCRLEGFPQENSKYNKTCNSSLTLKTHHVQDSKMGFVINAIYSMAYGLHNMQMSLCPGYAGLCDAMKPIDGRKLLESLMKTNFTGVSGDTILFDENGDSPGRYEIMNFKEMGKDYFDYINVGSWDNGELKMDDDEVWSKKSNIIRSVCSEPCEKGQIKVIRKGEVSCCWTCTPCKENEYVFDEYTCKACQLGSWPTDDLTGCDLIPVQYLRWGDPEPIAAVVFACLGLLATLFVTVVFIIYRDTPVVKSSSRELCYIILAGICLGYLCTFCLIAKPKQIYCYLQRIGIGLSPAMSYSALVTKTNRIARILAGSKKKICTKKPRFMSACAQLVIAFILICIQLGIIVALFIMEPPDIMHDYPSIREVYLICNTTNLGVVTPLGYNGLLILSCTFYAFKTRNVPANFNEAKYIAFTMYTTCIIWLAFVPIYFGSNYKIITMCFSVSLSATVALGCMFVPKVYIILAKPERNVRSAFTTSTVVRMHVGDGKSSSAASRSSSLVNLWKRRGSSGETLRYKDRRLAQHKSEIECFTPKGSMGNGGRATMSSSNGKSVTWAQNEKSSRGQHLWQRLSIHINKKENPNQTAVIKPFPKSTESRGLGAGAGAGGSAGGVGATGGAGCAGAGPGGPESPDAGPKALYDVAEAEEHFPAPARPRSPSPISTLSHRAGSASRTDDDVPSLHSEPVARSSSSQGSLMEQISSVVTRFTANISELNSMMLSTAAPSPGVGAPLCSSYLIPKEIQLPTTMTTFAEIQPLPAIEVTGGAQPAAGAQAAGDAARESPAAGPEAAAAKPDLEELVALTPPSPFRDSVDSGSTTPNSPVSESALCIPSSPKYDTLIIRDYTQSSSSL
Procedure: The positive modulation of mGluR5 is measured in a HEK 293 cell line expressing human recombinant mGluR5 and is detected with calcium based FLIPR assay. The cells are cultured with DMEM supplemented with 10% FCS, 2 μg/mL tetracycline, 100 μg/mL hygromycin and 500 μg/mL geneticin. The cell culture media is exchanged for tetracycline-free cell culture media 3-7 days before the assay. One day before the assay the cell culture medium is exchanged to DMEM without glutamine and phenol red and supplemented with 10% FCS, 100 μg/mL hygromycin and 500 μg/mL geneticin. On the assay day, the medium of the subconfluent cultures is removed and the cells are detached by addition of 2.5 ml EDTA (0.02%) per 175 cm2 culture flask for 1 minute. The cells are resuspend in Ringer solution (140 mM NaCl, 5 mM KCl, 2.5 mM CaCl2, 1.5 mM MgCl2, 5 mM Glucose, 10 mM Hepes; adjusted to pH 7.4 with NaOH), pooled and Ringer solution added to adjust the volume to 50 mL. The cell suspension is centrifuged for […] at 1500 U/min (425 g). The supernatant is removed and the cells washed a second time with 50 ml fresh Ringer solution and centrifuged again as before. The supernatant is again removed and the pellet resuspended in Ringer solution to 1,000,000 cells/ml (1×10^6 cells/mL). The cells are plated onto BD BioCoat Poly-D-Lysine 384 well plates (20.000 cells/well; 20 μl/well). The lid covered plates are then incubated until use at 37° C./10% CO2. For dye loading, 20 μl of Calcium-4 assay kit solution (prepared according to the manufacturer's description in Ringer solution) are added to the cells and the plates are incubated for 80 min 37° C. and then 10 min at room temperature.
Controls, Compound Dilution and Assay Execution:
Each assay plate contained wells with “high” and “low” controls:
Low controls 1% DMSO/ringer solution+basal glutamate activation (defined as 100% CTL).
High controls 10 μM CDPPB+basal glutamate activation (defined as 200% CTL).
Test compounds are dissolved and diluted in DMSO to 100-fold the desired concentrations. In a second step, the compounds are diluted in Ringer solution such that the compounds are 4-fold more concentrated than the desired final assay concentration. The final DMSO concentration was 1%.
20 μl of each compound solution are then transferred to the assay plate and the Ca2+ kinetic is measured to determine any intrinsic compound activity. After 5 min incubation in the FLIPR device, the second stimulation with 20 μl of glutamate in Ringer solution (glutamate concentration adjusted to approximately 5% basal stimulation of the maximal possible glutamate effect) is added and the kinetic Ca2+ response of the wells was measured for the modulation effect.
The peak height of the Ca release related fluorescence signal (9-66) is used for the EC50.
The EC50 of the modulation is calculated over a nonlinear regression with GraphPad Prism (Table 1).

Going from `O=C(c1cccc(Cl)c1)N1CCN(C(=O)c2ncn(-c3ccccc3)n2)C2(CCCC2)C1` [Example 309] to `CCC1(CC)CN(C(=O)c2cccc(Cl)c2)CCN1C(=O)c1ncn(-c2ccccc2)n1` [Example 313], the pEC50 falls from 6.84 to 6.03 (0.81 log units). The first is the more potent here.

Going from `COc1cccc(C(=O)N2[C@H](C)CN(C(=O)c3ncn(-c4cccc(C)c4)n3)C[C@@H]2C)n1` [Example 263, (2R*,6S*)-1-[(6-Methoxypyridin-2-yl)carbonyl]-2,6-dimethyl-4-{[1-(3-methylphenyl)-1H-[1,2,4]-triazol-3-yl]carbonyl}piperazine] to `COc1cccc(C(=O)N2CCN(C(=O)c3ncn(-c4cccc(C)c4)n3)C(C)(C)C2)n1` [Example 7, [4-(6-Methoxy-pyridine-2-carbonyl)-2,2-dimethyl-piperazin-1-yl]-[1-m-tolyl-1H-[1,2,4]triazol-3yl]-methanone], the pEC50 rises from 6.60 to 7.30 (0.70 log units).

Going from `CC(C)(C)c1cccc(C(=O)N2CCN(C(=O)c3ncn(-c4ccccc4)n3)C(C)(C)C2)c1` [Example 130] to `CC1(C)CN(C(=O)c2cccc(F)c2)CCN1C(=O)c1ncn(-c2ccccc2)n1` [Example 114], the pEC50 falls from 7.51 to 6.63 (0.88 log units).

`CCC1CN(C(=O)c2ncn(-c3cccc(Cl)c3)n2)CCN1C(=O)c1cccc(OC)n1` (stereo not drawn) [Example 258, {4-[1-(3-Chloro-phenyl)-1H-[1,2,4]triazole-3-carbonyl]-2-ethyl-piperazin-1-yl}-(6-methoxy-pyridin-2-yl)-methanone] and `CCC[C@H]1CN(C(=O)c2ncn(-c3cccc(F)c3)n2)CCN1C(=O)c1cccc(OC)n1` [Example 261, (S)-{4-[1-(3-Fluoro-phenyl)-1H-[1,2,4]triazole-3-carbonyl]-2-propyl-piperazin-1-yl}-(6-methoxy-pyridin-2-yl)-methanone] are within 0.2 log units of each other in pEC50: 6.76 for the first, 6.77 for the second.

`COc1ccc2oc(C)c(C(=O)N3CCN(C(=O)c4ncn(-c5cccc(C)c5)n4)C(C)C3)c2c1` (stereo not drawn) [Example 290] and `COc1ccc2oc(C)c(C(=O)N3CCN(C(=O)c4ncn(-c5cccc(F)c5)n4)C(C)C3)c2c1` (stereo not drawn) [Example 287] are within 0.2 log units of each other in pEC50: 6.57 for the first, 6.62 for the second.

First: COc1cccc(C(=O)N2CCN(C(=O)c3ncn(-c4ccc(F)c(C)c4)n3)C(C)(C)C2)n1 [Example 161]
Second: COCC1(C)CN(C(=O)c2cccc(OC)n2)CCN1C(=O)c1ncn(-c2cccc(C)c2)n1 (stereo not drawn) [Example 310]
The pEC50 of the first is 0.40 log units higher: 6.50 for the first, 6.10 for the second.

`CC1(C)CN(C(=O)c2cc(Cl)ccc2F)CCN1C(=O)c1ncn(-c2ccccc2)n1` [Example 155] and `Cc1ccc(Cl)cc1C(=O)N1CCN(C(=O)c2ncn(-c3cccc(Cl)c3)n2)C(C)(C)C1` [Example 57] are within 0.2 log units of each other in pEC50: 6.87 for the first, 6.92 for the second.

First: COc1cc2cc(C(=O)N3CCN(C(=O)c4ncn(-c5cccc(Cl)c5)n4)C(C)(C)C3)nc(OC)c2cc1OC [Example 32]
Second: COc1nc(C(=O)N2CCN(C(=O)c3ncn(-c4cccc(Cl)c4)n3)C(C)(C)C2)cc2cc(F)ccc12 [Example 21]
The pEC50 of the first is 0.46 log units lower: 6.75 for the first, 7.21 for the second.

First: COc1ccc(C(=O)N2CCN(C(=O)c3ncn(-c4cccc(Cl)c4)n3)C(C)(C)C2)s1 [Example 76]
Second: COc1cccc(C(=O)N2CCN(C(=O)c3ncn(-c4cccc(Cl)c4)n3)C(C)(C)C2)c1 [Example 43]
The pEC50 of the first is 0.47 log units lower: 6.63 for the first, 7.10 for the second.

Going from `COc1cccc(C(=O)N2CCN(C(=O)c3ncn(-c4ccccc4)n3)C(C)(C)C2)c1` [Example 122] to `Cc1c(C(=O)N2CCN(C(=O)c3ncn(-c4ccccc4)n3)C(C)(C)C2)oc2ccccc12` [Example 134], the pEC50 rises from 6.67 to 7.68 (1.01 log units).

Compared with `CC1(C)CN(C(=O)c2cc3ccccc3c(C3CC3)n2)CCN1C(=O)c1ncn(-c2cccc(Cl)c2)n1` [Example 204], `CC1(C)CN(C(=O)c2ccc3ccccc3c2)CCN1C(=O)c1ncn(-c2cccc(Cl)c2)n1` [Example 24] is 0.32 log units higher in pEC50: 6.89 for the first, 7.21 for the second. The second is the more potent here.

Going from `CC1(C)CN(C(=O)c2cccc(-c3ccn[nH]3)n2)CCN1C(=O)c1ncn(-c2cccc(Cl)c2)n1` [Example 94] to `Cn1ccc2cc(C(=O)N3CCN(C(=O)c4ncn(-c5cccc(Cl)c5)n4)C(C)(C)C3)ccc21` [Example 82], the pEC50 rises from 6.55 to 6.92 (0.37 log units).

First: Cc1ccc(-n2cnc(C(=O)N3CCN(C(=O)c4cc(Cl)c5c(c4)OCCO5)CC3(C)C)n2)cc1F [Example 157, [4-(8-Chloro-2,3-dihydro-benzo[1,4]dioxine-6-carbonyl)-2,2-dimethyl-piperazin-1-yl]-[1-(3-fluoro-4-methyl-phenyl)-1H-[1,2,4]triazol-3-yl]-methanone]
Second: CC1(C)CN(C(=O)c2cc(Cl)c3c(c2)OCCO3)CCN1C(=O)c1nnn(-c2cccc(Cl)c2)n1 [Example 171, [4-(8-Chloro-2,3-dihydro-benzo[1,4]dioxine-6-carbonyl)-2,2-dimethyl-piperazin-1-yl]-[2-(3-chloro-phenyl)-2H-tetrazol-5-yl]-methanone]
The pEC50 of the first is 0.81 log units lower: 6.44 for the first, 7.25 for the second. The second is the more potent here.

`O=C(c1cc(Br)c(Br)o1)N1CCN(C(=O)c2ncn(-c3cccc(F)c3)n2)C2(CCC2)C1` [Example 306] and `Cc1cc(Cl)cc(C(=O)N2CCN(C(=O)c3ncn(-c4cccc(Cl)c4)n3)C(C)(C)C2)n1` [Example 36] are within 0.2 log units of each other in pEC50: 6.35 for the first, 6.42 for the second.

First: COc1cc(C(=O)N2CCN(C(=O)c3ncn(-c4cccc(Cl)c4)n3)C(C)(C)C2)ccc1C [Example 46]
Second: Cc1cc(C)cc(C(=O)N2CCN(C(=O)c3ncn(-c4cccc(Cl)c4)n3)C(C)(C)C2)c1 [Example 70]
The pEC50 of the first is 0.21 log units higher: 7.06 for the first, 6.85 for the second. The first is the more potent here.

First: CC1CN(C(=O)c2ncn(-c3cccc(Cl)c3)n2)CCN1C(=O)c1sc2ccccc2c1Cl (stereo not drawn) [Example 226]
Second: CC1CN(C(=O)c2ncn(-c3cccc(Cl)c3)n2)CCN1C(=O)c1cc2c(Cl)cccc2s1 (stereo not drawn) [Example 223]
The pEC50 of the first is 0.26 log units lower: 6.22 for the first, 6.48 for the second.

`CC1(C)CN(C(=O)c2cc3ccccc3c(OCC3CC3)n2)CCN1C(=O)c1ncn(-c2ccccc2)n1` [Example 103] and `CCOc1nc(C(=O)N2CCN(C(=O)c3ncn(-c4ccccc4)n3)C(C)(C)C2)cc2ccccc12` [Example 120] are within 0.2 log units of each other in pEC50: 7.31 for the first, 7.37 for the second.

`COc1cc(OC)cc(C(=O)N2CCN(C(=O)c3ncn(-c4cccc(Cl)c4)n3)CC2C)c1` (stereo not drawn) [Example 224] and `COc1cc(OC)cc(C(=O)N2CCN(C(=O)c3ncn(-c4cccc(Cl)c4)n3)C(C)C2)c1` (stereo not drawn) [Example 280] are within 0.2 log units of each other in pEC50: 6.43 for the first, 6.32 for the second.

Going from `CC1CN(C(=O)c2ncn(-c3cccc(Cl)c3)n2)CCN1C(=O)c1cccc(-c2ccn(C)n2)c1` (stereo not drawn) [Example 225] to `CC1CN(C(=O)c2cn(C)c3ccccc23)CCN1C(=O)c1ncn(-c2cccc(Cl)c2)n1` (stereo not drawn) [Example 276], the pEC50 rises from 6.30 to 6.58 (0.28 log units). The second is the more potent here.

Going from `COc1cccc(C(=O)N2CCN(C(=O)c3ncn(-c4cccc(Br)c4)n3)CC2C)n1` (stereo not drawn) [Example 245] to `CC1CN(C(=O)c2ncn(-c3cccc(Cl)c3)n2)CCN1C(=O)c1ccc(Cl)s1` (stereo not drawn) [Example 231], the pEC50 falls from 6.45 to 5.75 (0.70 log units). The first is the more potent here.

First: CC(=O)Nc1ccc2oc(C(=O)N3CCN(C(=O)c4ncn(-c5ccccc5)n4)C(C)(C)C3)c(C)c2c1 [Example 133]
Second: CC1(C)CN(C(=O)c2cc(Cl)c(F)c(Cl)c2)CCN1C(=O)c1ncn(-c2ccccc2)n1 [Example 156]
The pEC50 of the first is 0.68 log units lower: 5.95 for the first, 6.63 for the second.

`COc1ccc2oc(C)c(C(=O)N3CCN(C(=O)c4ncn(-c5ccccc5)n4)CC3C)c2c1` (stereo not drawn) [Example 242] and `Cc1oc2ccccc2c1C(=O)N1CCN(C(=O)c2ncn(-c3cccc(Cl)c3)n2)C(C)C1` (stereo not drawn) [Example 275] are within 0.2 log units of each other in pEC50: 6.94 for the first, 6.77 for the second.

First: CC1(C)CN(C(=O)c2cccc(C(F)(F)F)n2)CCN1C(=O)c1ncn(-c2ccccc2)n1 [Example 101]
Second: COc1nc(C(=O)N2CCN(C(=O)c3ncn(-c4ccccc4)n3)C(C)(C)C2)cc2cc(F)c(F)cc12 [Example 148]
The pEC50 of the first is 0.33 log units higher: 7.28 for the first, 6.95 for the second.

Compared with `CC1CN(C(=O)c2ncn(-c3cccc(Cl)c3)n2)CCN1C(=O)c1cc(Cl)c2c(c1)OCCO2` (stereo not drawn) [Example 221], `Cc1ccc2oc(C(=O)N3CCN(C(=O)c4ncn(-c5cccc(Cl)c5)n4)CC3C)c(C)c2c1` (stereo not drawn) [Example 227] is 0.74 log units lower in pEC50: 6.76 for the first, 6.02 for the second.

Compared with `COc1cc(Cl)cc(C(=O)N2CCN(C(=O)c3nnn(-c4ccccc4)n3)C(C)(C)C2)n1` [Example 165], `CC(C)c1cccc(C(=O)N2CCN(C(=O)c3nnn(-c4ccccc4)n3)C(C)(C)C2)c1` [Example 167] is 0.22 log units higher in pEC50: 7.60 for the first, 7.82 for the second. The second is the more potent here.

`Cc1ccc2oc(C(=O)N3CCN(C(=O)c4ncn(-c5cccc(Cl)c5)n4)C(C)C3)c(C)c2c1` (stereo not drawn) [Example 281] showed a pEC50 of 5.83.
